Data from US8586548B2, “NAP alpha-aminoisobutyric acid analog with neuroprotective activity” (Ramot at Tel-Aviv University, Ltd., priority 2009, dated 2013).
Like-named read-outs stand apart in the source and are kept apart here.

Columns and labels:
[1] = tested on: beta amyloid peptide (1-42) toxicity; conditions: cited from earlier work
[2] = target: VQIVYK (SEQ ID NO:10) peptide derived from tau (Homo sapiens, UniProt P10636); test: In vitro tau-like VQIVYK aggregation assay (Thioflavin S); format: biochemical
Method: In the presence of polyglutamic acid (or heparin), VQIVYK (SEQ ID NO:10) aggregates which can be further detected by Thioflavin S (excitation 485 nm and emission 535) with emission intensity greatly increasing.
First, different concentrations of polyglutamic acid (0, 100 μM, 250 μM, and 400 μM) VQIVYK (SEQ ID NO:10) and either […] (NH4Ac) 50 mM pH 6.5 or MOPS 20 mM pH 6.5 and Thioflavin S 5 μM were mixed together and incubated at room temperature. The extent of aggregation was read at excitation 485 nm and emission 535 nm using the infinite 200 system with the Magellan program.
The peptides were added at a range of concentrations (10^−17-10^−9 M) and the extent of aggregation of 100 μM VQIVYK (SEQ ID NO:10) was tested in the presence of polyglutamate 250 μM in MOPS 20 μM, pH 6.5 for 7 days.
In order to avoid reading self peptide aggregation as VQIVYK aggregation, for each peptide concentration, the fluorescence of the peptide solution without VQIVYK was subtracted from the fluorescence of each peptide concentration containing VQIVYK.

[3] = tested on: rat cerebral cortical neurons; conditions: cited from earlier work
[4] = intranasal administration in the rat; cited from earlier work
[5] = tested on: fibroblast-like cells and neuronal-like cells; conditions: cited from earlier work
[6] = intranasal administration to rats, dogs or humans; cited from earlier work
[7] = tested on: newborn apolipoprotein E deficient mice; conditions: newborn apolipoprotein E deficient mice subjected to hypoxia; cited from earlier work
[8] = tested on: primary hippocampal neurons from presenilin 1 (PSI) mutant knock-in mice; conditions: pretreatment; cited from earlier work
[9] = tested on: beta amyloid peptide 25-35 neurotoxicity; conditions: cited from earlier work

## Asn-Ala-Pro-Val-Ser-Ile-Pro-Gln [NAP]
[1]
  protection against beta amyloid peptide (1-42) toxicity: protection against the toxic beta amyloid peptide (1-42)
[2]; 100 μM VQIVYK, polyglutamate 250 μM, MOPS pH 6.5, 7 days, FIG. 4, p<0.0005 vs. control
  inhibition of tau aggregation at 10^−13M: the effect of NAP seems to diminish
[2]; peptides at 10^−17-10^−9 M
  prevention of tau aggregation (overall): effective for preventing tau aggregation
[3]; neuronal-enriched cultures
  protection against beta amyloid (25-35): protected against beta amyloid (25-35)
[3]; neurons seeded on a bed of astrocytes
  protection against beta amyloid (25-35) toxicity: protect against beta amyloid (amino acids 25-35) toxicity
[4]
  appearance in plasma: rapid appearance in plasma
[5]; fibroblast-like cells
  protection against oxidative stress: did not protect fibroblast-like cells
[5]; neuronal-like cells
  protection against oxidative stress: did protect neuronal-like cells
[6]
  plasma levels: measurable plasma levels
[7]
  neurodevelopment: enhances neurodevelopment

## SALLRSIPA (synthetic activity-dependent neuroprotective protein (ADNP) activity dependent neurotrophic factor 1 (ADNF-1) active core site, ADNF-9)
[8]
  protection of neurons with increased vulnerability to excitotoxicity: protected by pretreatment with ADNF-9

B1: recombinant ADNP: recombinant activity-dependent neuroprotective protein (protein, UniProt Q9H2P0 1-1102, looked up)
Activity-dependent …: MFQLPVNNLGSLRKARKTVKKILSDIGLEYCKEHIEDFKQFEPNDFYLKNTTWEDVGLWDPSLTKNQDYRTKPFCCSACPFSSKFFSAYKSHFRNVHSEDFENRILLNCPYCTFNADKKTLETHIKIFHAPNASAPSSSLSTFKDKNKNDGLKPKQADSVEQAVYYCKKCTYRDPLYEIVRKHIYREHFQHVAAPYIAKAGEKSLNGAVPLGSNAREESSIHCKRCLFMPKSYEALVQHVIEDHERIGYQVTAMIGHTNVVVPRSKPLMLIAPKPQDKKSMGLPPRIGSLASGNVRSLPSQQMVNRLSIPKPNLNSTGVNMMSSVHLQQNNYGVKSVGQGYSVGQSMRLGLGGNAPVSIPQQSQSVKQLLPSGNGRSYGLGSEQRSQAPARYSLQSANASSLSSGQLKSPSLSQSQASRVLGQSSSKPAAAATGPPPGNTSSTQKWKICTICNELFPENVYSVHFEKEHKAEKVPAVANYIMKIHNFTSKCLYCNRYLPTDTLLNHMLIHGLSCPYCRSTFNDVEKMAAHMRMVHIDEEMGPKTDSTLSFDLTLQQGSHTNIHLLVTTYNLRDAPAESVAYHAQNNPPVPPKPQPKVQEKADIPVKSSPQAAVPYKKDVGKTLCPLCFSILKGPISDALAHHLRERHQVIQTVHPVEKKLTYKCIHCLGVYTSNMTASTITLHLVHCRGVGKTQNGQDKTNAPSRLNQSPSLAPVKRTYEQMEFPLLKKRKLDDDSDSPSFFEEKPEEPVVLALDPKGHEDDSYEARKSFLTKYFNKQPYPTRREIEKLAASLWLWKSDIASHFSNKRKKCVRDCEKYKPGVLLGFNMKELNKVKHEMDFDAEWLFENHDEKDSRVNASKTADKKLNLGKEDDSSSDSFENLEEESNESGSPFDPVFEVEPKISNDNPEEHVLKVIPEDASESEEKLDQKEDGSKYETIHLTEEPTKLMHNASDSEVDQDDVVEWKDGASPSESGPGSQQVSDFEDNTCEMKPGTWSDESSQSEDARSSKPAAKKKATMQGDREQLKWKNSSYGKVEGFWSKDQSQWKNASENDERLSNPQIEWQNSTIDSEDGEQFDNMTDGVAEPMHGSLAGVKLSSQQA
[9]
  neuroprotection in vitro against severe oxidative stress and beta amyloid peptide 25-35: neuroprotective in vitro
